Assay results taken from US20250034135A1, “ANTI-APOPTOTIC PROTEIN BCL-2 INHIBITOR, PHARMACEUTICAL COMPOSITION AND USES THEREOF” (HANGZHOU HEALZEN THERAPEUTICS CO., LTD., priority 2021, published 2025).

biological target: BCL2 (Homo sapiens (Human), UniProt P10415); assay: Molecular level activity test of anti-apoptotic protein BCL2 (HTRF, binding to Bim peptide); details: HTRF, binding of BCL2 to Bim peptide; read-out: BCL2 nM (inhibitory activity, IC50)
In short: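 Step one: compound, supplied in 2% DMSO, is mixed with His-tagged BCL2 and biotinylated Bim peptide and reacted for 1 h. Step two: anti-His and streptavidin-XL665 reagents in detection buffer are added. Step three: after a 4 h room-temperature incubation, time-resolved fluorescence is measured.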

BCL2, sequence (P10415 whole entry): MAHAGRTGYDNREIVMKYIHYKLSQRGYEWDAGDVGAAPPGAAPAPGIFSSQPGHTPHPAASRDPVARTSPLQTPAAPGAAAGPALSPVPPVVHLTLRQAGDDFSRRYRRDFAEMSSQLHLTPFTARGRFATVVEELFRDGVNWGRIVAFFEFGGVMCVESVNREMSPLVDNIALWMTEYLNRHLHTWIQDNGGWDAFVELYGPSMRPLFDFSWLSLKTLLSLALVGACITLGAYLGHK

IC50, < 10 nM:
CC(C)c1ccccc1[C@@H]1CCCN1C1CC2(CCN(c3ccc(C(=O)NS(=O)(=O)c4cc([N+](=O)[O-])c(NCC5(F)CCN(C(C)C)CC5)c5[nH]cnc45)c(N4CCCOc5nc6[nH]ccc6cc54)c3)CC2)C1 [compound 086, (S)-2-(3,4-dihydro-2H-pyrrolo[3′,2′:5,6]pyridino[2,3-b][1,4]oxazacyclohept-1 (7H)-yl)-N-((7-(((4-fluoro-1-isopropylpiperid-4-yl)methyl)amino)-6-nitro-1H-benzo[d]imidazol-4-yl)sulfonyl)-4-(2-(2-(2-isopropylphenyl)pyrrolidin-1-yl)-7-azaspiro[3.5]non-7-yl)benzamide]
COc1ccc(CN2CCN(C3CC4(CCN(c5cc(Oc6cnc7[nH]ccc7c6)c(C(=O)NS(=O)(=O)c6cc([N+](=O)[O-])c(NCC7(F)CCOCC7)c7oc(C)cc67)cc5F)CC4)C3)[C@H](c3ccccc3C(C)C)C2)cc1 [compound 111, (R)-2-((1H-pyrrolo[2,3-b]pyrid-5-yl)oxy)-5-fluoro-N-((7-(((4-fluorotetrahydro-2H-pyran-4-yl)methyl)amino)-2-methyl-6-nitrobenzofuran-4-yl)sulfonyl)-4-(2-(2-(2-isopropylphenyl)-4-(4-methoxybenzyl)piperazin-1-yl)-7-azaspiro[3.5]non-7-yl)benzamide]
COc1ccc(CN2CCN(C3CC4(CCN(c5cc(Oc6cnc7[nH]ccc7c6)c(C(=O)NS(=O)(=O)c6cc([N+](=O)[O-])c(NCC7(F)CCOCC7)c7scnc67)cc5F)CC4)C3)[C@H](c3ccccc3C(C)C)C2)cc1 [compound 108]
CC(C)c1ccccc1C1CN(C(C)C)CCN1C1CC2(C1)CN(c1ccc(C(=O)NS(=O)(=O)c3cc([N+](=O)[O-])c(NCC4(F)CCN(C(C)C)CC4)c4[nH]cnc34)c(Oc3cnc4[nH]ccc4c3)c1)C2 (stereo not shown) [compound 042, 2-((1H-pyrrolo[2,3-b]pyrid-5-yl)oxy)-N-((7-(((4-fluoro-1-isopropylpiperid-4-yl)methyl)amino)-6-nitro-1H-benzo[d]imidazol-4-yl)sulfonyl)-4-(6-(4-isopropyl-2-(2-isopropylphenyl)piperazin-1-yl)-2-azaspiro[3.3]hept-2-yl)benzamide]
CC(C)c1ccccc1[C@@H]1CCCN1C1CC2(CCN(c3cc(Oc4cnc5[nH]ccc5c4)c(C(=O)NS(=O)(=O)c4cc([N+](=O)[O-])c(NCC5(F)CCN(CC(F)(F)F)CC5)c5[nH]cnc45)cn3)CC2)C1 [compound 031, (S)-4-((1H-pyrrolo[2,3-b]pyrid-5-yl)oxy)-N-((7-(((4-fluoro-1-(2,2,2-trifluoroethyl)piperid-4-yl)methyl)amino)-6-nitro-1H-benzo[d]imidazol-4-yl)sulfonyl)-6-(2-(2-(2-isopropylphenyl)pyrrolidin-1-yl)-7-azaspiro[3.5]non-7-yl) nicotinamide]
COc1ccc(CN2CCN(C3CC4(CCN(c5ccc(C(=O)NS(=O)(=O)c6cc([N+](=O)[O-])c(NC[C@H]7COCCO7)c7c6OCO7)c(Oc6cnc7[nH]ccc7c6)c5)CC4)C3)[C@H](c3ccccc3C(C)C)C2)cc1 [compound 148, N-((7-((((S)-1,4-dioxan-2-yl)methyl)amino)-6-nitrobenzo[d][1,3]dioxocyclopent-4-yl)sulfonyl)-2-((1H-pyrrolo[2,3-b]pyrid-5-yl)oxy)-4-(2-((R)-2-(2-isopropylphenyl)-4-(4-methoxybenzyl)piperazin-1-yl)-7-azaspiro[3.5]non-7-yl)benzamide]
COc1cc(CN2CCN(C3CC4(CCN(c5cc(Oc6cnc7[nH]ccc7c6)c(C(=O)NS(=O)(=O)c6ccc(NCC7(F)CCOCC7)c([N+](=O)[O-])c6)cc5F)CC4)C3)[C@H](c3ccccc3C(C)C)C2)cc2cc(C)oc12 [compound 202, (R)-2-((1H-pyrrolo[2,3-b]pyrid-5-yl)oxy)-5-fluoro-N-((4-(((4-fluorotetrahydro-2H-pyran-4-yl)methyl)amino)-3-nitrophenyl)sulfonyl)-4-(2-(2-(2-isopropylphenyl)-4-((7-methoxy-2-methylbenzofuran-5-yl)methyl)piperazin-1-yl)-7-azaspiro[3.5]non-7-yl)benzamide]
COc1ccc(CN2CCN(C3CC4(CCN(c5ccc(C(=O)NS(=O)(=O)c6cc([N+](=O)[O-])c(NCC7(F)CCOCC7)c7[nH]cnc67)c(N6CCOc7nc8[nH]ccc8cc76)c5)CC4)C3)C(c3ccccc3C(C)C)C2)cc1 (stereo not shown) [compound 093, 2-(2,3-dihydropyrrolo[3′,2′:5,6]pyridino[2,3-b][1,4]oxazin-1 (6H)-yl)-N-((7-(((4-fluorotetrahydro-2H-pyran-4-yl)methyl)amino)-6-nitro-1H-benzo[d]imidazol-4-yl)sulfonyl)-4-(2-(2-(2-isopropylphenyl)-4-(4-methoxybenzyl)piperazin-1-yl)-7-azaspiro[3.5]non-7-yl)benzamide]
COc1cc(CN2CCN(C3CC4(CCN(c5ccc(C(=O)NS(=O)(=O)c6cc([N+](=O)[O-])c(NC[C@H]7CC[C@](C)(O)CC7)c7c6OCO7)c(Oc6cnc7[nH]ccc7c6)c5)CC4)C3)[C@H](c3ccccc3C(C)C)C2)ccc1C1CC1 [compound 179, 2-((1H-pyrrolo[2,3-b]pyrid-5-yl)oxy)-4-(2-((R)-4-(4-cyclopropyl-3-methoxybenzyl)-2-(2-isopropylphenyl)piperazin-1-yl)-7-azaspiro[3.5]non-7-yl)-N-((7-((((1r, 4r)-4-hydroxy-4-methylcyclohexyl)methyl)amino)-6-nitrobenzo[d][1,3]dioxocyclopent-4-yl)sulfonyl)benzamide]
COc1ccc(CN2CCN(C3CC4(CCN(c5cc(Oc6cnc7[nH]ccc7c6)c(C(=O)NS(=O)(=O)c6cc([N+](=O)[O-])c(NCC7(F)CCOCC7)c7scnc67)cc5F)CC4)C3)[C@H](c3ccccc3C(C)C)C2)cn1 [compound 128, (R)-2-((1H-pyrrolo[2,3-b]pyrid-5-yl)oxy)-5-fluoro-N-((7-(((4-fluorotetrahydro-2H-pyran-4-yl)methyl)amino)-6-nitrobenzo[d]thiazol-4-yl)sulfonyl)-4-(2-(2-(2-isopropylphenyl)-4-((6-methoxypyrid-3-yl)methyl)piperazin-1-yl)-7-azaspiro[3.5]non-7-yl)benzamide]
COc1ccc(CN2CCN(C3CC4(C3)CN(c3cc(Oc5cnc6[nH]ccc6c5)c(C(=O)NS(=O)(=O)c5cc([N+](=O)[O-])c(NCC6(F)CCN(C(C)C)CC6)c6[nH]cnc56)cn3)C4)C(c3ccccc3C(C)C)C2)cc1 (stereo not shown) [compound 070, 4-((1H-pyrrolo[2,3-b]pyrid-5-yl)oxy)-N-((7-(((4-fluoro-1-isopropylpiperid-4-yl)methyl)amino)-6-nitro-1H-benzo[d]imidazol-4-yl)sulfonyl)-6-(6-(2-(2-isopropylphenyl)-4-(4-methoxybenzyl)piperazin-1-yl)-2-azaspiro[3.3]hept-2-yl) nicotinamide]
COc1ccc(CN2CCN(C3CC4(CCN(c5cc(Oc6cnc7[nH]ccc7c6)c(C(=O)NS(=O)(=O)c6cc([N+](=O)[O-])c(NC[C@H]7CC[C@](C)(O)CC7)c7[nH]cnc67)cn5)CC4)C3)C(c3ccccc3C(C)C)C2)cc1 (stereo partly shown) [compound 067, 4-((1H-pyrrolo[2,3-b]pyrid-5-yl)oxy)-N-((7-((((1r,4r)-4-hydroxy-4-methylcyclohexyl)methyl)amino)-6-nitro-1H-benzo[d]imidazol-4-yl)sulfonyl)-6-(2-(2-(2-isopropylphenyl)-4-(4-methoxybenzyl)piperazin-1-yl)-7-azaspiro[3.5]non-7-yl) nicotinamide]
COc1ccc(CN2CCN(C3CC4(CCN(c5cc(Oc6cnc7[nH]ccc7c6)c(C(=O)NS(=O)(=O)c6cc([N+](=O)[O-])c(NC[C@H]7CC[C@](C)(O)CC7)c7c6OCO7)cn5)CC4)C3)[C@H](c3ccccc3C(C)C)C2)cc1 [compound 137, 4-((1H-pyrrolo[2,3-b]pyrid-5-yl)oxy)-N-((7-((((1r, 4r)-4-hydroxy-4-methylcyclohexyl)methyl)amino)-6-nitrobenzo[d][1,3]dioxocyclopent-4-yl)sulfonyl)-6-(2-((R)-2-(2-isopropylphenyl)-4-(4-methoxybenzyl)piperazin-1-yl)-7-azaspiro[3.5]non-7-yl) nicotinamide]
CC(C)c1ccccc1[C@@H]1CCCN1C1CC2(CCN(c3cc(Oc4cnc5[nH]ccc5c4)c(C(=O)NS(=O)(=O)c4cc([N+](=O)[O-])c(NC[C@H]5CC[C@](C)(O)CC5)c5occc45)cc3F)CC2)C1 [compound 095, 2-((1H-pyrrolo[2,3-b]pyrid-5-yl)oxy)-5-fluoro-N-((7-((((1r, 4r)-4-hydroxy-4-methylcyclohexyl)methyl)amino)-6-nitrobenzofuran-4-yl)sulfonyl)-4-(2-((S)-2-(2-isopropylphenyl)pyrrolidin-1-yl)-7-azaspiro[3.5]non-7-yl)benzamide]
CC(C)c1ccccc1[C@@H]1CCCN1C1CC2(CCN(c3cc(Oc4cnc5[nH]ccc5c4)c(C(=O)NS(=O)(=O)c4cc([N+](=O)[O-])c(NC[C@H]5CC[C@](C)(O)CC5)c5c4CCO5)cc3F)CC2)C1 [compound 100, 2-((1H-pyrrolo[2,3-b]pyrid-5-yl)oxy)-5-fluoro-N-((7-((((1r, 4r)-4-hydroxy-4-methylcyclohexyl)methyl)amino)-6-nitro-2,3-dihydrobenzofuran-4-yl)sulfonyl)-4-(2-((S)-2-(2-isopropylphenyl)pyrrolidin-1-yl)-7-azaspiro[3.5]non-7-yl)benzamide]
COc1ccc(CN2CCN(C3CC4(CCN(c5cc(Oc6cnc7[nH]ccc7c6)c(C(=O)NS(=O)(=O)c6cc([N+](=O)[O-])c(NCC7(F)CCN(C(C)C)CC7)c7[nH]cnc67)cn5)CC4)C3)C(c3ccccc3C(C)C)C2)cc1 (stereo not shown) [compound 069, 4-((1H-pyrrolo[2,3-b]pyrid-5-yl)oxy)-N-((7-(((4-fluoro-1-isopropylpiperid-4-yl)methyl)amino)-6-nitro-1H-benzo[d]imidazol-4-yl)sulfonyl)-6-(2-(2-(2-isopropylphenyl)-4-(4-methoxybenzyl)piperazin-1-yl)-7-azaspiro[3.5]non-7-yl) nicotinamide]
